We go through 27 molecules from patent US11214554B2, “Indoleamine 2,3-dioxygenase inhibitor, method for preparation and use thereof” (NANJING HUAWE MEDICINE TECHNOLOGY GROUP CO., LTD., priority 2018, dated 2022).

Sequence of IDO1 enzyme (P14902 whole entry, species assumed): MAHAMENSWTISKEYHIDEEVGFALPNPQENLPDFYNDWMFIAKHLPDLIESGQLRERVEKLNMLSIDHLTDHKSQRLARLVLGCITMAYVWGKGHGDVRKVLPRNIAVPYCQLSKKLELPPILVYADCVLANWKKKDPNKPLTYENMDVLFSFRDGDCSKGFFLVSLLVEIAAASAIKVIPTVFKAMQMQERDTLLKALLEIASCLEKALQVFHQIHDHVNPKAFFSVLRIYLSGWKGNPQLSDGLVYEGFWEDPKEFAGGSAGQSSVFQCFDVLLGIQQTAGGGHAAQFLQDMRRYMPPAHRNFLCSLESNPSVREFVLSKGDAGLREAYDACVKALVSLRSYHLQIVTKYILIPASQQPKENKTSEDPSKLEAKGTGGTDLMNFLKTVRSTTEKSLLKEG

The target of the first series is IDO1 enzyme (Homo sapiens (Human), UniProt P14902). Description: Determination of the IDO1 inhibitory activity of compounds (enzyme assay, absorbance at 480 nm). In kind it is biochemical. The following applies: 50 nM IDO1, 37° C., 30 minutes, pH 6.5, 1% DMSO; average of two tests. How it is done:
100 mM PBS containing 400 μM L-tryptophan, 20 mM ascorbate, 20 μM methylene blue and 1000 U/ml catalase, pH 6.5
All compounds were dissolved with DMSO. During the assay, each compound was diluted to a concentration as needed. The compound of each concentration was added to multi-wells, and the final concentration of DMSO was controlled at 1%.
a.) the reaction mixture was prepared by adding 50 nM IDO1 and the desired concentration of the test compound to 100 μL of IDO1 assay buffer. IDO1 and assay buffer need to be preheated to 37° C.
b.) The mixture was reacted in a constant temperature water tank at 37° C. for 30 minutes.
c.) 50 μL of 30% trichloroacetic acid was added.
d.) The above mixture was reacted in a constant temperature water tank at 52° C. for 30 minutes.
e.) The reaction mixture was centrifuged at 12000 g for 10 minutes at room temperature.
f.) 100 μL of the obtained supernatant and 100 μL of Ehrlich reagent were mixed.
g.) the absorbance at 480 nm was measured using an M5 microplate reader.
4. Data Analysis Inhibition rate=(ODpostive−ODsample)/(ODpositive−ODnegative)*100% 5. Results and Discussion
In this experiment, the inhibitory activity of the test compounds on the IDO1 enzyme was tested. Compounds of each diluted concentration were tested in multi-wells. The final concentration of the reaction system in DMSO was controlled to 1%. The inhibition rate was tested twice, and the average value was taken.
In general, IC50 refers to the concentration needed to halve the response being measured. A high value points to lower potency. `O/N=C(\Nc1ccc(F)c(C(F)(F)F)c1)c1nonc1NOCCc1cccs1` [Compound I-7] displayed an IC50 of 113 nM.

`Cc1ccc(CCONc2nonc2/C(=N/O)Nc2ccc(F)c(Br)c2)cc1` [Compound I-8] had an IC50 of 94 nM.

On to `O=C(NCCONc1nonc1/C(=N/O)Nc1ccc(F)c(C(F)(F)F)c1)c1ccc(F)cc1` [Compound I-9], for which it took 85 nM to reach half-maximal inhibition (IC50).

For `Nc1ncc(C(=O)NCCONc2nonc2/C(=N/O)Nc2ccc(F)c(Cl)c2)s1` [Compound I-10], half-maximal inhibition (IC50) required 90 nM.

As for `CS(=O)(=O)NCCONc1nonc1/C(=N/O)Nc1ccc(F)c(F)c1` [Compound I-13], inhibition was half-maximal at 124 nM (IC50).

The molecule `OCCONc1nonc1/C(=N/O)Nc1ccc(F)c(Br)c1` [Compound I-14] yielded an IC50 of 81 nM.

The molecule `OCCCONc1nonc1/C(=N/O)Nc1ccc(F)c(Cl)c1` [Compound I-15] gave an IC50 of 93 nM.

With `NC(CCONc1nonc1/C(=N/O)Nc1ccc(F)c(Br)c1)C(=O)O` (stereo not drawn) [Compound I-16], the IC50 stood at 42 nM.

In turn, `O=C(O)CCCONc1nonc1/C(=N/O)Nc1ccc(F)c(Br)c1` [Compound I-18] returned an IC50 of 183 nM.

In turn, `NS(=O)(=O)NC1(CONc2nonc2/C(=N/O)Nc2ccc(F)c(Br)c2)CC1` [Compound I-20] yielded an IC50 of 18 nM.

In the case of `COC(=O)C(CCONc1nonc1/C(=N/O)Nc1ccc(F)c(F)c1)NS(N)(=O)=O` (stereo not drawn) [Compound I-22], half-maximal inhibition (IC50) was put at 64 nM.

The molecule `NS(=O)(=O)NC(CO)CONc1nonc1/C(=N/O)Nc1ccc(F)cc1` (stereo not drawn) [Compound I-23] gave a half-maximal inhibitory concentration (IC50) of 36 nM.

In turn, `NS(=O)(=O)NCCONc1nonc1/C(=N/O)Nc1ccc(F)c(Br)c1` [Compound I-24] displayed an IC50 of 8 nM.

`NS(=O)(=O)NCCONc1nonc1/C(=N/O)NCc1ccccc1` [Compound I-25] had an IC50 of 68 nM.

The molecule `NS(=O)(=O)NCCCCONc1nonc1/C(=N/O)Nc1ccc(F)c(Br)c1` [Compound I-26] showed an IC50 of 92 nM.

Molecule `CC(N/C(=N\O)c1nonc1NOCCNS(N)(=O)=O)c1ccccc1` (stereo not drawn) [Compound I-27] gave an IC50 of 42 nM.

`NS(=O)(=O)NC1CCC(ONc2nonc2/C(=N/O)Nc2ccc(F)c(F)c2)CC1` (stereo not drawn) [Compound I-31] showed an IC50 of 42 nM.

As for `O/N=C(\Nc1ccc(F)c(F)c1)c1nonc1NOC1CCC(O)CC1` (stereo not drawn) [Compound I-35], the midpoint of inhibition, the IC50, lay at 94 nM.

On to `O/N=C(\Nc1ccc(F)c(F)c1)c1nonc1N1CCCCO1` [Compound I-38], for which it took 78 nM to reach half-maximal inhibition (IC50).

`O/N=C(\Nc1ccc(F)c(F)c1)c1nonc1NOC1CCCCO1` (stereo not drawn) [Compound I-39] came in with an IC50 of 142 nM.

Molecule `O/N=C(\Nc1ccc(F)c(Br)c1)c1nonc1NOCCONc1nonc1/C(=N/O)Nc1ccc(F)c(Br)c1` [Compound I-43] came in with an IC50 of 35 nM.

As for `NS(=O)(=O)NOCCONc1nonc1/C(=N/O)Nc1ccc(F)c(Br)c1` [Compound I-44], the IC50 came out at 78 nM.

`O=C1NC(=O)C2(CCC(ONc3nonc3/C(=N/O)Nc3ccc(F)c(F)c3)CC2)N1` (stereo not drawn) [Compound I-49] yielded an IC50 of 66 nM.

In turn, `O=C(CCC1CCC(ONc2nonc2/C(=N/O)Nc2ccc(F)c(F)c2)CC1)Nc1ccc(F)cc1` (stereo not drawn) [Compound I-50] displayed an IC50 of 28 nM.

As to `COC(=O)CSNc1nonc1/C(=N/O)Nc1ccc(F)cc1` [Compound I-51], 83 nM corresponded to half-maximal inhibition (IC50).

In another series the target is IDO protease in highly expressed HeLa cells (Homo sapiens (Human), UniProt P14902). Description: Inhibitory activity of compounds on IDO protease in highly expressed HeLa cells. The following applies: highly expressed HeLa cell line. In kind it is cell-based. As for the experimental part: This method was used to determine the inhibitory effect of the compounds of the invention on the inhibitory activity of IDO protease in highly expressed HeLa cells.
Sequence of IDO protease in highly expressed HeLa cells (P14902 whole entry): as the sequence (P14902 whole entry, species assumed) above
Highly expressed HeLa cell line
a.) 50 μL of 30% trichloroacetic acid was added.
b.) The mixture was reacted in a constant temperature water tank at 52° C. for 30 minutes.
c.) The above mixture was centrifuge at 12,000 g for 10 minutes at room temperature.
d.) 100 μL of the supernatant was mixed with 100 μL of Ehrlich reagent.
e.) the absorbance was measured at 480 nm using an M5 microplate reader.
The software Graphpad Prism 5 was used with the calculation formula of log(inhibitor) vs. normalized response to perform IC50 curve fitting and the IC50 value was calculated.
Take `NC(CCONc1nonc1/C(=N/O)Nc1ccc(F)c(Br)c1)C(=O)O` (stereo not drawn) [Compound I-16]: half-maximal inhibition (IC50) was put at 35 nM.

Turning to `NS(=O)(=O)NC1(CONc2nonc2/C(=N/O)Nc2ccc(F)c(Br)c2)CC1` [Compound I-20], the IC50 was found to be 8 nM.

`NS(=O)(=O)NC(CO)CONc1nonc1/C(=N/O)Nc1ccc(F)cc1` (stereo not drawn) [Compound I-23] displayed an IC50 of 38 nM.

On to `NS(=O)(=O)NCCONc1nonc1/C(=N/O)Nc1ccc(F)c(Br)c1` [Compound I-24], for which the IC50 stood at 5 nM.

Molecule `CC(N/C(=N\O)c1nonc1NOCCNS(N)(=O)=O)c1ccccc1` (stereo not drawn) [Compound I-27] displayed an IC50 of 26 nM.

`O/N=C(\Nc1ccc(F)c(Br)c1)c1nonc1NOCCONc1nonc1/C(=N/O)Nc1ccc(F)c(Br)c1` [Compound I-43] had an IC50 of 38 nM.

On to `O=C(CCC1CCC(ONc2nonc2/C(=N/O)Nc2ccc(F)c(F)c2)CC1)Nc1ccc(F)cc1` (stereo not drawn) [Compound I-50], for which the IC50 is 21 nM.

Tested on in another series: not listed separately
The experiment in a line: Pharmacokinetic evaluation in SD rats after oral administration by single gavage. The format is in vivo. The following applies: rat; female SD rats, PO 75 mg/kg, plasma. As for the experimental part:
1. Experimental animals: 100 (half male and half female) SPF grade SD rats were purchased from Shanghai Cypre-Bikai Experimental Animal Co., Ltd. Among them, 72 medically qualified and healthy SD rats without abnormality (half male and half female) were used for the study. 2. Animal Administration
72 SD rats (half male and half female) were tested according to the following table. The drug samples were stirred at least 10 minutes before administration.
Blood samples were obtained through the jugular vein puncture, and each sample was collected for about 0.25 mL and added with heparin sodium for anticoagulation. The blood sampling was performed at time points as follows:
for oral administration group, before administration, 0.25 h, 0.5 h, 1 h, 2 h, 4 h, 6 h, 8 h, 24 h after administration.
After collection, the blood samples were placed on ice and the plasma was separated by centrifugation (centrifugation conditions: 8000 rpm, 6 minutes, 2-8° C.). The collected plasma was stored at −80° C. before analysis. Plasma samples were analyzed by the analysis department of the experimental institution using LC-MS/MS for the content of the test compound in the rat plasma. The LLOQ of the detection substance was 1 ng/mL.
According to the blood plasma concentration data of the drugs, the pharmacokinetic calculation software WinNonlin5.2 non-compartmental model was used to calculate the pharmacokinetic parameters AUC0-t, Cmax, Tmax, T1/2 d and other parameters of the test samples and their average value and standard deviation.
When pharmacokinetic parameters were calculated for samples with lower concentration than the lower limit of quantification, samples taken before the curve reached Cmax should be calculated with zero value, and samples taken after the curve reached Cmax should be calculated with non-quantitative (BLQ).
The main pharmacokinetic parameters of compounds in SD rats plasma after oral administration by single gavage
What is called AUC(0-inf) is the area under the concentration-time curve extrapolated to infinity. Lower therefore signals less exposure. What is called Cmax is the maximum level reached in the sampled fluid or tissue. For orientation: Tmax means the time from dosing to the highest level. With `NS(=O)(=O)NC1(CONc2nonc2/C(=N/O)Nc2ccc(F)c(Br)c2)CC1` [Compound I-20], the AUC(0-inf) came out at 1990 ng·h/mL, the highest level (Cmax) was 3330 ng/mL and the Tmax turned out to be 0.5 h.

Regarding `NS(=O)(=O)NCCONc1nonc1/C(=N/O)Nc1ccc(F)c(Br)c1` [Compound I-24], the AUC(0-inf) is 18700 ng·h/mL, the highest level (Cmax) was 7240 ng/mL and the Tmax stood at 1 h.

With `O=C(NCCONc1nonc1/C(=N/O)Nc1ccc(F)c(Br)c1)Nc1cc(F)cc(F)c1` [Compound I-40], the AUC(0-inf) was determined as 7540 ng·h/mL, the Cmax was found to be 4240 ng/mL and the Tmax is 1 h.

`NS(=O)(=O)NCCNc1nonc1C(=NO)Nc1ccc(F)c(Br)c1` [INCB024360, Epacadostat, reference compound]: the AUC(0-inf) stood at 11300 ng·h/mL and the highest level (Cmax) was 3410 ng/mL.

The series is the same for the next values; noted with them: rat; female SD rats, PO 75 mg/kg, plasma; read-out: t½ (converted).
For `NS(=O)(=O)NC1(CONc2nonc2/C(=N/O)Nc2ccc(F)c(Br)c2)CC1` [Compound I-20], the half-life was 1.42 h.

Turning to `NS(=O)(=O)NCCONc1nonc1/C(=N/O)Nc1ccc(F)c(Br)c1` [Compound I-24], the half-life is 2.34 h.

In the case of `O=C(NCCONc1nonc1/C(=N/O)Nc1ccc(F)c(Br)c1)Nc1cc(F)cc(F)c1` [Compound I-40], the half-life was 1.45 h.

For the molecule `NS(=O)(=O)NCCNc1nonc1C(=NO)Nc1ccc(F)c(Br)c1` [INCB024360, Epacadostat, reference compound], the half-life is 2.51 h.

Staying with this series, now noted: rat; male SD rats, PO 75 mg/kg, plasma.
For `NS(=O)(=O)NC1(CONc2nonc2/C(=N/O)Nc2ccc(F)c(Br)c2)CC1` [Compound I-20], the AUC(0-inf) amounted to 2390 ng·h/mL, the Cmax came out at 4240 ng/mL and the Tmax was 1 h.

Take `NS(=O)(=O)NCCONc1nonc1/C(=N/O)Nc1ccc(F)c(Br)c1` [Compound I-24]: the AUC(0-inf) amounted to 20700 ng·h/mL, the highest level (Cmax) was 8760 ng/mL and the Tmax worked out at 1 h.

For `O=C(NCCONc1nonc1/C(=N/O)Nc1ccc(F)c(Br)c1)Nc1cc(F)cc(F)c1` [Compound I-40], the AUC(0-inf) was 8250 ng·h/mL, the Cmax was 4760 ng/mL and the Tmax worked out at 1 h.

Take `NS(=O)(=O)NCCNc1nonc1C(=NO)Nc1ccc(F)c(Br)c1` [INCB024360, Epacadostat, reference compound]: the AUC(0-inf) stood at 12200 ng·h/mL, the concentration peaked (Cmax) at 3940 ng/mL and the Tmax was determined as 0.5 h.

Still in this series, the particulars now being: rat; male SD rats, PO 75 mg/kg, plasma; read-out: t½ (converted).
On to `NS(=O)(=O)NC1(CONc2nonc2/C(=N/O)Nc2ccc(F)c(Br)c2)CC1` [Compound I-20], for which the half-life is 1.98 h.

`NS(=O)(=O)NCCONc1nonc1/C(=N/O)Nc1ccc(F)c(Br)c1` [Compound I-24]: the half-life is 2.12 h.

As for `O=C(NCCONc1nonc1/C(=N/O)Nc1ccc(F)c(Br)c1)Nc1cc(F)cc(F)c1` [Compound I-40], the half-life was 1.67 h.

As for `NS(=O)(=O)NCCNc1nonc1C(=NO)Nc1ccc(F)c(Br)c1` [INCB024360, Epacadostat, reference compound], the half-life was 2.24 h.
